Source: patent US12622917B2, “High-activity Wnt pathway inhibitor compound” (ADLAI NORTYE BIOPHARMA CO., LTD., priority 2020, dated 2026)

Experiments:
[1] = system: Colo205-LUC-TCF/LEF M1 reporter cell line (Wnt pathway); assay: Colo205-LUC-TCF/LEF M1 reporter gene (luciferase) inhibition; assay type: cell-based; settings: 4 hours incubation, luciferase readout
Method in brief: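 Luminescent readout of TCF/LEF-regulated luciferase after a 4 h, 37° C compound exposure in a stable Colo205 reporter clone (10,000 cells/well). Serial 3-fold dilutions started at 20 uM; IC50 derived using DMSO-treated cells and no-cell wells as controls.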

Colo205 = assay: Proliferation inhibition, Wnt mutant cell line Colo205; assay type: cell-based; settings: Homo sapiens, COLO 205; Colo205, Wnt pathway-dependent, 96 hours; read-out: Antiproliferative IC50 Colo205
Method in brief: (§1)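 Cells were seeded at 1000 per well, incubated 20-24 h at 37° C in 5% CO2, then exposed to 3-fold serially diluted compound (top final concentration 20 uM) for 96 hours. Viability was read by a Promega cell viability assay; IC50 values were derived relative to DMSO-only and cell-free control wells.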

RKO = assay: Proliferation inhibition, non-Wnt mutant control cell line RKO; assay type: cell-based; settings: Homo sapiens, Wnt-independent control cell line, 96 hours, read-out: Antiproliferative IC50 RKO
Method in brief: as §1

Hela = assay: Proliferation inhibition, non-Wnt mutant control cell line Hela; assay type: cell-based; settings: Homo sapiens, Wnt-independent control cell line, 96 hours, read-out: Antiproliferative IC50 Hela
Excerpt: The cell lines used in the experiment are Colo205 and DU4475 cell lines whose Wnt pathway is continuously activated and whose proliferation is Wnt pathway-dependent; while the BELA and RKO cell lines, whose Wnt pathway is not activated under normal circumstances and the proliferation is independent of Wnt pathway, as control cell lines. It is Judged that the inhibitory effect of the compound of the present invention on Wnt-dependent proliferation is not caused by other non-specific toxicity.
Treat the Colo205, Du4475, HELA and RKO cell lines cultured in their respective mediums in the logarithmic growth phase, collect the cells and prepare a uniform cell suspension of known concentration, and then add it to the 96-well cell culture plate Cell suspension, so that each well contains 1000 cells. Put it into a 5% CO2 incubator and incubate at 37° C. for 20-24 h. On the second day, the fully dissolved, 3-fold serially diluted compound was added to each cell culture well, so that the final maximum concentration in the cell culture well was 20 uM, and the culture was continued for 96 hours. In this test, Promega's cell viability detection test is used for detection. The more the cells proliferate, the stronger the final signal intensity will be. The detection instrument is SpectraMax, full wavelength mode. The wells only added with DMSO were used as positive control wells, and the wells that were not inoculated with cells were used as negative control wells. […] The IC50 value of cell proliferation inhibition was used to evaluate the inhibitory effect of the compound on the Wnt pathway and the toxic effect on normal cells (Table 2).

DU4475 = assay: Proliferation inhibition, Wnt mutant cell line DU4475; assay type: cell-based; settings: Homo sapiens, DU-4475; DU4475, Wnt pathway-dependent, 96 hours; read-out: Antiproliferative IC50 DU4475
Method in brief: as §1

NCI-H929 = assay: Proliferation inhibition, NCI-H929 cell line; assay type: cell-based, human; settings: Homo sapiens; NCI-H929 cells, 96 hours culture, cell viability detection; read-out: Antiproliferative IC50 NCI-H929
Excerpt: The cell lines used in the test are NCI-H929 and HepG2 cell lines whose Wnt pathway is continuously activated and whose proliferation is Wnt pathway-dependent; the inhibitory effect of the compound of the present invention on Wnt-dependent proliferation is judged.
Treat the NCI-H929 and HepG2 cell lines cultured in their respective mediums in the logarithmic growth phase, collect the cells and prepare a uniform cell suspension of known concentration, and then add the cell suspension to the 96-well cell culture plate solution so that each well contains 4000 cells. Put it into a […] incubator and incubate at 37° C. for 20-24 h. On the second day, the fully dissolved, 3-fold serially diluted compound was added to each cell culture well, so that the final maximum concentration in the cell culture well was 20 uM, and the culture was continued for 96 hours. In this test, Promega's cell viability detection test is used for detection. The more the cells proliferate, the stronger the final signal intensity will be. The detection instrument is SpectraMax, full wavelength mode. The wells only added with DMSO were used as positive control wells, and the wells that were not inoculated with cells were used as negative control wells. […] The IC50 value of cell proliferation inhibition was used to evaluate the inhibitory effect of the compound on the Wnt pathway and the toxic effect on normal cells (Table 3).

HepG2 = assay: Proliferation inhibition, HepG2 cell line; assay type: cell-based; settings: Homo sapiens; HepG2 cells, 96 hours culture, cell viability detection; read-out: Antiproliferative IC50 HepG2
Method in brief: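 Wnt-dependent proliferation in HepG2 and NCI-H929 cells, seeded at 4000 cells/well and pre-incubated 20-24 h at 37 °C. Cells were then exposed for 96 h to 3-fold serial dilutions (top final concentration 20 uM), and viability was read by signal intensity. IC50 was referenced to DMSO-only wells and cell-free wells.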

SMILES	IC50 [1] [nM]	IC50 (Colo205) [nM]	IC50 (Hela) [nM]	IC50 (NCI-H929) [nM]	IC50 (HepG2) [nM]	IC50 (RKO) [nM]	IC50 (DU4475) [nM]
C[C@H]1Cn2c(C(F)F)cc3nc(NCc4cnn(Cc5ccc(C(F)(F)F)nc5)c4)nc(c32)N1C [Example 22, (S)-8-(difluoromethyl)-4,5-dimethyl-N-((1-((6-(trifluoromethyl)pyridin-3-yl)methyl)-1H-pyridine Azol-4-yl)methyl)-5,6-dihydro-4H-pyrrolo[3,2,1-de]pteridin-2-amine]	10	22	> 10000			5420	19
CN1c2nc(NCc3cnn(Cc4ccc(C(F)(F)F)nc4)c3)nc3ccn(c23)C[C@@H]1CO [71 (W56)]	20	13.5	> 10000			> 10000	16.7
COC[C@H]1[C@@H](C)n2ccc3nc(NCc4cnn(Cc5ccc(C(F)(F)F)nc5)c4)nc(c32)N1C [88 (W140)]	22		> 10000			> 10000	
COC[C@H]1Cn2ccc3nc(NCc4ccc(C(F)(F)F)nc4)nc(c32)N1C [86 (W135)]	38	79	> 10000			> 10000	
CN1c2nc(NCc3ccc(Oc4ccc(C(F)(F)F)nc4)nc3)nc3c2N(CCC3)C(=O)[C@@H]1c1ccccc1 [127 (W280), (S)-4-methyl-5-phenyl-2-(((6-((6-(trifluoromethyl)pyridin-3-yl)oxo)pyridin-3-yl)methyl)amino)-4,5,9,10-tetrahydro-6H,8H-pyrido[3,2,1-de]pteridin-6-one]	20	21		75	42	> 10000	42
CN1c2nc(NCc3ccc(Oc4cnc(C(F)(F)F)nc4)nc3)nc3c2N(CCC3)C(=O)[C@@H]1CF [150 (W301)]	25	24		62	19	> 10000	12
[2H]C([2H])([2H])N1c2nc(NCc3ccc(Oc4ccc(C(F)(F)F)nc4)nc3)nc3c2N(CCC3)C(=O)[C@@H]1CC(F)(F)F [196 (W344)]	7	1.4		54	1.2	> 10000	< 0.5
CN1c2nc(NCc3ccc(Oc4cnc(C(F)(F)F)nc4)nc3)nc3c2N(CCC3)C(=O)[C@@H]1CC(F)(F)F [199 (W319)]	9	6.9		28	2	> 10000	< 0.5
CN1c2nc(NCc3ccc(Oc4cnc(C(F)(F)F)nc4)nc3)nc3c2N(CCC3)C(=O)[C@@H]1c1ccccc1 [172 (W305)]	20	17.4		89	26	> 10000	5.8
[2H]C([2H])([2H])N1c2nc(NCc3ccc(Oc4cnc(C(F)(F)F)nc4)nc3)nc3c2N(CCC3)C(=O)[C@@H]1CC [162 (W270)]	11	4.9		22	16	> 10000	< 0.5
[2H]C([2H])([2H])N1c2nc(NCc3ccc(Oc4cnc(C(F)(F)F)nc4)nc3)nc3c2N(CCC3)C(=O)[C@@H]1CC(F)(F)F [193 (W342)]	4	1.4		24	1.2	> 10000	< 0.5
CN1c2nc(NCc3ccc(Oc4cnc(C(F)(F)F)nc4)nc3)nc3c2N(CCC3)C(=O)C1(C)C [177 (W297)]	21	16.1		56	25	> 10000	1.2
C[C@H](F)[C@H]1C(=O)N2CCCc3nc(NCc4ccc(Oc5ccc(C(F)(F)F)nc5)nc4)nc(c32)N1C [126 (W308), (R)-5-((S)-1-fluoroethyl)-4-methyl-2-(((6-((6-(trifluoromethyl)pyridin-3-yl)oxo)pyridine-3-yl)methyl)amino)-4,5,9,10-tetrahydro-6H,8H-pyrido[3,2,1-de]pteridin-6-one]	10	9.1		39	2.7	> 10000	< 0.5
CN1c2nc(NCc3ccc(Oc4cnc(C(F)(F)F)nc4)nc3)nc3c2N(CCC3)C(=O)[C@@H]1C(C)(C)F [151 (W332)]	50	11		26	9.8	> 10000	13
C[C@@H](F)[C@H]1C(=O)N2CCCc3nc(NCc4ccc(Oc5ccc(C(F)(F)F)nc5)nc4)nc(c32)N1C [149 (W285)]	16	15		41	11	> 10000	2.9

Continued, in another order:

IC50 [1] [nM]	IC50 (Colo205) [nM]	IC50 (Hela) [nM]	IC50 (NCI-H929) [nM]	IC50 (HepG2) [nM]	SMILES	IC50 (RKO) [nM]	IC50 (DU4475) [nM]
53	41	> 10000			C[C@H]1C(=O)N2CCCc3nc(NCc4cnn(Cc5ccc(F)cc5)c4)nc(c32)N1C [Example 15, (S)-2-(((1-(4-fluorobenzyl)-1H-pyrazol-4-yl)methyl)amino)-4,5-dimethyl-4,5,9,10-tetrahydro-6H,8H-pyrido[3,2,1-de]pteridin-6-one]	> 10000	44
30	36		17	69	CCN1c2nc(NCc3ccc(Oc4ccc(C(F)(F)F)nc4)nc3)nc3c2N(CCC3)C(=O)[C@@H]1C [116 (W249), (S)-4-ethyl-5-methyl-2-(((6-((6-(trifluoromethyl)pyridin-3-yl)oxo)pyridin-3-yl)methyl)amino)-4,5,9,10-tetrahydro-6H,8H-pyrido[3,2,1-de]pteridin-6-one]	> 10000	46
34	31		87	81	CC[C@H]1C(=O)N2CCCc3nc(NCc4ccc(Cn5ccc(C(F)(F)F)n5)nc4)nc(c32)N1C [146 (W273)]	> 10000	18
	81	> 10000			C[C@H]1C(=O)N2CCCc3nc(NCc4ccc(Cn5ccc(C(F)(F)F)n5)nc4)nc(c32)N1C [92 (W232)]	> 10000	80
9	4.6		22	16	CC[C@H]1C(=O)N2CCCc3nc(NCc4ccc(Oc5cnc(C(F)(F)F)nc5)nc4)nc(c32)N1C [161 (W269)]	> 10000	< 0.5
	89	> 10000			C[C@H]1C(=O)N2CCCc3nc(NCc4cnn(CCCC(F)(F)F)c4)nc(c32)N1C [93 (W223)]	> 10000	79
26	29		68	35	CCN1c2nc(NCc3ccc(Oc4cnc(C(F)(F)F)nc4)nc3)nc3c2N(CCC3)C(=O)[C@@H]1C [168 (W298)]	> 10000	11
15	21		37	19	CCN1c2nc(NCc3ccc(Oc4cc(C(F)(F)F)nn4C)nc3)nc3c2N(CCC3)C(=O)[C@@H]1C [153 (W293)]	> 10000	3.9
